Results from patent US12564572B2, “Topical ocular delivery of cromakalim” (QLARIS BIO, INC., priority 2022, dated 2026).

Columns and labels:
[1] = tested on: patients with primary open-angle glaucoma; conditions: cited from earlier work
Dutch Belted rabbits = experiment: 28 day repeated dose toxicology and toxicokinetic study by ocular topical administration in Dutch Belted rabbits (Example 12); conditions: rabbit, in vivo, topical or ocular; for Tmax: male
Procedure: Plasma concentrations of levcromakalim were evaluated in DB rabbits after twice a day (BID) oculus uterque (OU, both eyes) topical ophthalmic (T.O.) administration of formulation 3d for 28 days at dose levels of 0, 0.012, 0.03, and 0.06 mg/eye/dose.
Plasma concentrations of levcromakalim were evaluated in DB rabbits after BID OU T.O. administration of three concentrations of formulation 3d at dose levels of 0, 0.012, 0.03, and 0.06 mg/eye/dose (0, 0.024, 0.06, and 0.12 mg/eye/day respectively or 0.030% [1.0 mM], 0.075% [2.5 mM], or 0.15% [5 mM] respectively) for 28 days. Plasma was collected from 3 animals/dose group at pre-dose, 0.5, 1, 2, 3, 4, 6, and 12 hours post-first dose on Days 1 and 28.

KATP channels = conditions: in the presence of ATP; cited from earlier work
rabbit eyes = conditions: 0.5% cromakalim in 0.02 M phosphate buffer; cited from earlier work

## CC1(C)Oc2ccc(C#N)cc2[C@@H](N2CCCC2=O)[C@@H]1OP(=O)(O)O [QLS-101]
[1]; in vivo
  Hyperemia (eye redness): no evidence of hyperemia
[1]; patients with primary open-angle glaucoma
  Efficacy: positive efficacy signal

## CC1(C)Oc2ccc(C#N)cc2[C@@H](N2CCCC2=O)[C@@H]1O [levcromakalim]
Dutch Belted rabbits; female, 0.03 mg
  AUCtlast: 3.99 ng·h/mL
Dutch Belted rabbits; female, 0.06 mg
  t1/2: 1.77
Dutch Belted rabbits; 0.012 mg
  Tmax: 70.2 min
Dutch Belted rabbits; 0.06 mg
  Tmax: 42 min

## CC1(C)Oc2ccc(C#N)cc2C(N2CCCC2=O)C1O (centres unmarked) [cromakalim]
KATP channels
  Increase of open-state probability (Popen) of single KATP channels: more than 9 fold
Rabbit eyes
  Effect on IOP after topical administration: tended to increase IOP
